Results on two molecules are retold here after US20090148398A1, “Naturally Occurring Volatile Attractant” (priority 2007, published 2009).

For one test, the system named is fire ant workers. The test is described as follows: Fire ant alarm response. The conditions noted are these: in vivo. The arrangement: species or system Solenopsis invicta. The protocol: Recently, the identity of a component of the fire ant alarm pheromone was determined to be 2-ethyl, 3,6-dimethyl pyrazine and the origin is the mandibular gland. […] In addition, 2-ethyl, 3,6-dimethyl pyrazine is commercially available as a mixture with the related compound, 2-ethyl, 3,5-dimethyl pyrazine.

Another test concerns S. invicta workers. In words: Y-tube olfactometer attraction bioassay. The arrangement: species or system Solenopsis invicta. The conditions noted are these: in vivo. From the text:
All ants used in these experiments were obtained from mature, queenright, monogyne Solenopsis invicta colonies excavated from a known monogyne site in Gainesville, Fla. The colonies were separated from the dirt and set up in the laboratory at least one month prior to the experiments. Laboratory colonies were maintained on a diet of crickets, water and 10% sucrose, and kept in plastic trays (83×53×13 cm) whose inner sides were painted with poly tetrafluoroethylene compositions (ADI Fluon, ICI Americas, Bayonne, NF) to prevent, escape of the ants. Based on the above, the attraction of S. invicta workers to various concentrations of the commercially available mixture of 2-ethyl, 3,5-dimethyl pyrazine and 2-ethyl, 3,6-dimethyl pyrazine was evaluated using a Y-tube olfactometer (FIG. 5). The olfactometer is composed of two 24/40 ground glass joints 14 each ring sealed to one of the arms 24 of an approximately 5 cm Y-tube 26 such that about 1 cm of each Y-tube extends through the male half of one of the ground glass joints. An approximately 5 cm piece of about 0.6 cm tubing is ring sealed about 1 cm into the female half of the ground glass joints. […] The number of ants entering the chamber with either the control or the treatment during the 3 min were counted and recorded. […]

“Also recorded” adds a separate entry of the source.

As to `CCc1ncc(C)nc1C` [2-ethyl, 3,5-dimethyl pyrazine], the “alarm response of fire ant workers” value with fire ant workers is reported as “elicit an alarm response”.

Turning to `CCc1nc(C)cnc1C` [2-ethyl, 3,6-dimethyl pyrazine], in the test on S. invicta workers, the “attraction of fire ant workers (conclusion of olfactometer experiment)” value is given as “attracts fire ant workers through space”. The “alarm response of fire ant workers” value in the test on fire ant workers is given as “elicited the full range of previously reported fire ant alarm behaviors; also recorded: fire ant workers responded better”.
